Laboratory results from patent US20240139142A1, “METHOD FOR PREVENTING OR TREATING LIVER DISEASE” (priority 2022, published 2024).
Like-named read-outs stand apart in the source and are kept apart here.

Tests used:
[1] = system: liver hepatocellular carcinoma cell line SNU-449; assay: MTS analysis, growth inhibition (GI50); type: cell-based; conditions: for GI50: Homo sapiens
[2] = system: cancer cells; conditions: background statement; cited from earlier work
[3] = system: liver hepatocellular carcinoma cell line Mahlavu; assay: MTS analysis, growth inhibition (GI50); type: cell-based; conditions: read-out: GI50, Mahlavu liver hepatocellular carcinoma cell line
[4] = system: liver hepatocellular carcinoma cell line SNU-449; assay: MTS assay cell growth, selectivity test; type: cell-based; conditions: SNU-449 vs THLE-2, MTS assay
[5] = system: Hepatitis B virus-induced ROS in Huh-7 cells; assay: Removal of HBV-induced ROS, DHE fluorescence; type: cell-based, human; conditions: Huh-7 transfected with pGEM C12, 5 μM PCH1152, 10 μM NAC
Procedure: To examine the effect of PCH1152, NAC or the combination thereof on removing HBV-induced ROS, the Huh-7 cells were remained untreated, or treated with 5 μM PCH1152, 10 μM NAC or 5 μM PCH 1152 plus 10 μM NAC. The ROS was examined by DHE fluorescence, and the difference between each group was compared by Tukey's Multiple Comparison Test.

[6] = system: Mahlavu liver hepatocellular carcinoma cell line; assay: Expression of ABCC2, Twist and Mcl-1 after treatment; type: cell-based; conditions: 2.5 μM, 64 hours
Text: (§1) The process of trans-differentiating epithelial cells into motile mesenchymal cells is called epithelial-mesenchymal transition (EMT). EMT is indispensable in development, wound healing and stem cell behavior, and may induce fibrosis and carcinogenesis pathologically. In addition, EMT plays an important role in liver fibrosis, liver cirrhosis and liver hepatocellular carcinoma. […] Moreover, EMT may increase the anti-apoptosis effect, which will result in the development of drug resistance in cancer treatment, and induce the development of stemness of the cancer cells, as well as increase the number of cancer stem cells. The cancer stem cell is one of the important factors in the progression, recurrence, metastasis and drug resistance of the cancer. There is an evidence that in the samples of the liver hepatocellular carcinoma patients with poor prognosis, the overexpressions of Twist and Snail were observed. […] The results above represent that isothiocyanate structural modified compound of the present disclosure may prevent liver carcinogenesis and the growth, invasion, metastasis, progression and recurrence of liver hepatocellular carcinoma via inhibiting epithelial-mesenchymal transition, anti-apoptosis and/or inhibiting drug resistance.

[7] = system: SNU-449 liver hepatocellular carcinoma cell line; assay: as above; type: cell-based; conditions: 2.5 μM, 64 hours
Text: as §1

[8] = Safety test, median lethal dose (LD50), intravenous injection; type: in vivo; conditions: in vivo, mouse
Procedure: (§2) The mouse xenograft model of liver hepatocellular carcinoma was administered with different concentrations of PCH1152 or P1130 via intravenous injection, and the median lethal dose (LD50) was calculated by the number of death and dosage.

[9] = system: mouse xenograft model of liver hepatocellular carcinoma; assay: as above; type: in vivo
Procedure: as §2

[10] = system: SNU-449 liver hepatocellular carcinoma cell line; assay: Western blot, apoptosis and ABCC2/Mcl-1/Twist expression; type: cell-based; conditions: low concentration
[11] = system: liver hepatocellular carcinoma cell line with Nexavar drug resistance; assay: Protein expression and apoptosis in drug-resistant cell line; type: cell-based
Text: WT: wild-type liver hepatocellular carcinoma cell line. R: Nexavar-drug resistance-liver hepatocellular carcinoma cell line.
After treating liver hepatocellular carcinoma cell line with Nexavar drug resistance by PCH1130 or PCH1152, the expressions of molecules such as USP22, ABCC1, ABCC2 and Twist in liver hepatocellular carcinoma may be decreased, and the expressions of cleaved Caspase-8 and PARP may be increased, which induced the apoptosis of liver hepatocellular carcinoma cells.

[12] = system: human normal liver cell line THLE-2; assay: Western blot, apoptosis and ABCC2/Mcl-1/Twist expression; type: cell-based; conditions: low concentration
[13] = system: SNU-449 liver hepatocellular carcinoma cell line; assay: Western blot of apoptosis markers (cleaved caspase 8, cleaved PARP); type: cell-based; conditions: 0.3 μM, 0, 24, 48 and 72 hours
Procedure: SNU-449 liver hepatocellular carcinoma cell line was treated by 0.3 μM isothiocyanate structural modified compounds P1130 and PCH1152, and natural isothiocyanate compound PEITC, and the control group was treated by DSMO. After extracting the proteins in the cells at different time points, such as 0, 24, 48 and 72 hours, analysis and comparison were performed by using western blot. […] The results represent that the two structural modified compounds described above effectively promoted the apoptosis of the liver hepatocellular carcinoma cells (FIG. 1).

[14] = system: wild-type liver hepatocellular carcinoma cell line Hep3B; assay: MTS assay cell viability IC50; type: cell-based; conditions: Homo sapiens
Procedure: (§3) In order to look for the biomarkers of drug resistance for liver hepatocellular carcinoma, liver hepatocellular carcinoma cell line Hep3B and SNU-449 were continually cultured in an environment with Sorafenib, and the concentration of Sorafenib was increased gradually. Specifically, broth containing 3.5 μM to 10.8 μM Sorafenib was used as a starting concentration (compared to the IC50 of the cell), and the concentration increased 0.5 μM every week until the Sorafenib-drug resistance-liver hepatocellular carcinoma cell line was established. […] With the same experimental procedures as described above, the Sorafenib-drug resistance-cell line was also cultured in a cell broth containing Regorafenib, and the cell viability was tested by MTS assay.

[15] = system: Sorafenib-drug resistance-liver hepatocellular carcinoma cell line Hep3B; assay: MTS assay cell viability IC50; type: cell-based; conditions: Homo sapiens
Procedure: as §3

[16] = system: Sorafenib-drug resistance-liver hepatocellular carcinoma cell line SNU-499; assay: MTS assay cell viability IC50; type: cell-based
Procedure: as §3

[17] = system: wild-type liver hepatocellular carcinoma cell line SNU-499; assay: MTS assay cell viability IC50; type: cell-based
[18] = SNU-449, MTS analysis, read-out: GI50, SNU-449 liver hepatocellular carcinoma cell line
[19] = read-out: The IC50 of Regorafenib, wild-type liver hepatocellular carcinoma cell line
[20] = read-out: The IC50 of Sorafenib, wild-type liver hepatocellular carcinoma cell line

Compound: S=C=NCc1ccccc1 [BITC, benzyl isothiocyanate]
- GI50 [1, 18]: 9.58 µM
- dose needed to have the inhibiting effect on cancer cells [2]: ~10 mM
- GI50 ([3]; MTS analysis): 3.84 µM

Compound: COc1cccc2c1C(=O)c1c(O)c3c(c(O)c1C2=O)C[C@@](O)(C(=O)CO)C[C@@H]3O[C@H]1C[C@H](N)[C@H](O)[C@H](C)O1 [Doxorubicin, reference compound]
- selectivity between liver hepatocellular carcinoma cell and normal liver cell [4]: did not have selectivity

Compound: CC(=O)N[C@@H](CS)C(=O)O [NAC, N-acetylcysteine, reference compound]
- HBV-induced ROS increasement [5]: significantly reduce

Compound: COc1ccc(CCN=C=S)cc1 [P1130]
- expressions of ABCC2, Twist and Mcl-1 [6]: inhibition
- expressions of ABCC2, Twist and Mcl-1 [7]: inhibition
- LD50 [8]: 100 to 300 mg/kg
- toxicity relative to existing anticancer drug, e.g. Taxotere [9]: comparable
- apoptosis of liver hepatocellular carcinoma cell line [10]: promote apoptosis
- expressions of ABCC2, Mcl-1 and Twist [10]: inhibit the expressions
- GI50 ([1]; SNU-449, read-out: GI50, SNU-449 liver hepatocellular carcinoma cell line): 0.64 µM
- increase of the ability of inhibiting the growth of the liver hepatocellular carcinoma cell line ([1]; compared to natural isothiocyanate compounds BITC or PEITC): 12 times
- effect on drug resistance in liver hepatocellular carcinoma [11]: reversing the drug resistance
- expressions of USP22, ABCC1, ABCC2 and Twist [11]: decreased
- expressions of cleaved Caspase-8 and PARP [11]: increased
- apoptosis promotion and inhibition of ABCC2, Mcl-1, Twist in human normal liver cell line [12]: no such effect
- expression levels of cleaved caspase 8 and cleaved PARP [13]: significantly increased
- GI50 [3]: 1.52 µM

Compound: S=C=NCCc1ccccc1 [PEITC, phenylethyl isothiocyanate, reference compound]
- GI50 [1, 18]: 7.58 µM
- expression levels of cleaved caspase 8 and cleaved PARP [13]: only slightly increased
- GI50 ([3]; MTS analysis): 9.59 µM

Compound: CNC(=O)c1cc(Oc2ccc(NC(=O)Nc3ccc(Cl)c(C(F)(F)F)c3)c(F)c2)ccn1 [Regorafenib]
- GI50 [1, 18]: 4.54 µM
- IC50 [14, 19]: 4.28 µM
- IC50 ([15]; Sorafenib-resistant, read-out: The IC50 of Regorafenib, drug resistance-liver hepatocellular carcinoma cell line): 8.33 µM
- IC50 ([16]; SNU-499, Sorafenib-resistant, read-out: The IC50 of Regorafenib, drug resistance-liver hepatocellular carcinoma cell line): 14.5 µM
- IC50 [17, 19]: 3.66 µM
- GI50 ([3]; MTS analysis): 5 µM

Compound: CNC(=O)c1cc(Oc2ccc(NC(=O)Nc3ccc(Cl)c(C(F)(F)F)c3)cc2)ccn1 [Sorafenib]
- GI50 [1, 18]: 2.34 µM
- IC50 [14, 20]: 3.8 µM
- IC50 ([15]; read-out: The IC50 of Sorafenib, drug resistance-liver hepatocellular carcinoma cell line): 10.9 µM
- IC50 ([16]; SNU-499, read-out: The IC50 of Sorafenib, drug resistance-liver hepatocellular carcinoma cell line): 14.2 µM
- IC50 [17, 20]: 7.89 µM
- GI50 ([3]; MTS analysis): 3.58 µM
